ChEMBL document CHEMBL1122068, “Species- or isozyme-specific enzyme inhibitors. 5. Differential effects of thymidine substituents on affinity for rat thymidine kinase isozymes” (J Med Chem, 1982)

How the values were obtained:
[1] = molecular target: T1, Thymidine kinase, cytosolic (Rattus norvegicus) (UniProt P27158); assay: Affinity towards cytoplasmic Thymidine kinase relative ot TdR.
T1 sequence (whole entry): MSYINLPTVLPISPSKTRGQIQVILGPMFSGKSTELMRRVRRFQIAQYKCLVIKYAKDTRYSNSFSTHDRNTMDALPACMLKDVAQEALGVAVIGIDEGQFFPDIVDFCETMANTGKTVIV

[2] = molecular target: T2, Thymidine kinase 2 (Rattus norvegicus) (UniProt D3ZGQ2); assay: Affinity towards mitochondrial thymidine kinase relative to TdR.
T2 sequence (whole entry): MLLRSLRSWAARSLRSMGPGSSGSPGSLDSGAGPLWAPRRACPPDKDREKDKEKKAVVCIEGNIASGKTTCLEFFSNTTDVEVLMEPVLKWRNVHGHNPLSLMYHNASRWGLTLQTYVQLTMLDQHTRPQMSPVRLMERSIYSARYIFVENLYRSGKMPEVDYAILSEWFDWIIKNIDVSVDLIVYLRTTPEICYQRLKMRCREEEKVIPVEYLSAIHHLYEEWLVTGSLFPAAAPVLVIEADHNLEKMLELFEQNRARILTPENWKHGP

[3] = molecular target: T2, Thymidine kinase 2 (Rattus norvegicus); assay: Ability to inhibit rat mitochondrial thymidine kinase; set-up: concentration or dose not given beside the values; conditions: concentration not given here
[4] = organism: Rattus norvegicus; assay: Differential affinity is the ratio between M-TK and C-TK
[5] = molecular target: T3, Thymidine kinase, cytosolic (Rattus norvegicus, UniProt P27158); assay: (§1) Competitive inhibition against rat cytoplasmic thymidine kinase
T3 sequence (P27158 whole entry): T1 sequence (whole entry)

[6] = molecular target: T4, Thymidine kinase 2 (Rattus norvegicus, UniProt D3ZGQ2); assay: Competitive inhibition against rat mitochondrial thymidine kinase
T4 sequence (D3ZGQ2 whole entry): T2 sequence (whole entry)

[7] = molecular target: T3, Thymidine kinase, cytosolic; assay: Competitive inhibition against rat cytoplasmic Thymidine kinase
[8] = molecular target: T1, Thymidine kinase, cytosolic (Rattus norvegicus); assay: Ability to inhibit rat cytoplasmic Thymidine kinase; set-up: concentration or dose not given beside the values; conditions: concentration not given here
[9] = molecular target: T1, Thymidine kinase, cytosolic (Rattus norvegicus); assay: as §1; set-up: concentration or dose not given beside the values; conditions: concentration not given here
[10] = molecular target: T3, Thymidine kinase, cytosolic; assay: Affinity towards cytoplasmic Thymidine kinase relative ot TdR; expressed as KM (TdR)/Ki
[11] = molecular target: T1, Thymidine kinase, cytosolic (Rattus norvegicus); assay: Affinity towards cytoplasmic thymidine kinase relative ot TdR; expressed as KM (TdR)/Ki

SMILES | Relative affinity [1] | Relative affinity [2] | inhibition [3] | Differential affinity [4] | Ki [6] | Ki [7] | inhibition [8] | other results
Cc1cn([C@H]2C[C@H](O)[C@@H](CO)O2)c(=O)n(Cc2ccccc2)c1=O | 0.05 | > 0.002 | 10% | 0.04 | – | – | – | Ki [5]: 320 µM
CCNCC1OC(n2cc(C)c(=O)[nH]c2=O)CC1O (stereo unspecified) | 0.04 | 0.0056 | – | 0.14 | 1440 µM | 40 µM | – | –
Cc1cn([C@H]2C[C@H](O)[C@@H](CN)O2)c(=O)[nH]c1=O | 0.67 | 0.0017 | – | 0.0025 | 4600 µM | 2.4 µM | – | –
CCOC1N([C@H]2C[C@H](O)[C@@H](CO)O2)C(=O)NC(=O)C1(C)Br (stereo in doubt; 4c) [listing 1 of 2 here] | – | – | – | – | 11 µM | 3.9 µM | – | –
CCOC1N([C@H]2C[C@H](O)[C@@H](CO)O2)C(=O)NC(=O)C1(C)Br (stereo in doubt; 4b) [listing 1 of 2 here] | – | – | – | – | – | 2 µM | – | –
CCNc1ccn([C@H]2C[C@H](O)[C@@H](CO)O2)c(=O)n1 | – | – | 5% | – | – | – | 7% | –
C/C=C/c1cn([C@H]2C[C@H](O)[C@@H](CO)O2)c(=O)[nH]c1=O | – | – | – | – | – | 15500 µM | – | –
Nc1ccn([C@H]2C[C@H](O)[C@@H](CO)O2)c(=O)n1 [DOXECITINE] | – | 0.025 | 58% | – | 320 µM | – | 7% | –
CCSCC1OC(n2cc(C)c(=O)[nH]c2=O)CC1O (stereo unspecified) | – | – | 22% | – | – | – | 11% | –
Cn1c(=O)ccn([C@H]2C[C@H](O)[C@@H](CO)O2)c1=O | – | – | 4% | – | – | – | – | inhibition [9]: 62%
NCc1cn([C@H]2C[C@H](O)[C@@H](CO)O2)c(=O)[nH]c1=O | – | – | 3% | – | – | – | 30% | –
Cc1cn(C2CC(O)C(CSCCCC(=O)O)O2)c(=O)[nH]c1=O (stereo unspecified) | – | – | 36% | – | – | – | 48% | Ki [10]: 3600 µM
Cc1cn([C@H]2CC[C@@H](CO)O2)c(=O)[nH]c1=O | 0.004 | 0.0091 | – | 2.3 | 880 µM | 400 µM | – | –
O=c1ccn([C@@H]2O[C@H](CO)[C@@H](O)[C@H]2O)c(=O)[nH]1 | – | – | 4% | – | – | – | 4% | –
Cc1cn([C@H]2C=C[C@@H](CO)O2)c(=O)[nH]c1=O [STAVUDINE] | – | – | – | 2.7 | 3250 µM | – | – | –
Cc1cn([C@H]2C[C@H](O)[C@@H](CO)O2)c(=O)nc1N | 0.00076 | 0.006 | – | 7.9 | – | 2100 µM | – | –
Nc1nc(=O)n([C@H]2C[C@H](O)[C@@H](CO)O2)cc1I [IBACITABINE] | – | – | – | – | – | 11400 µM | – | –
CCC(=O)O[C@H]1C[C@H](n2ccc(N)nc2=O)O[C@@H]1CO | – | – | 19% | – | – | – | – | inhibition [9]: 8%
CCSC1CC(n2cc(C)c(=O)[nH]c2=O)OC1CO (stereo unspecified) | 0.067 | 0.13 | – | 1.9 | 62 µM | 24 µM | – | –
Cc1cn(C2CC(O)C(CSCCO)O2)c(=O)[nH]c1=O (stereo unspecified) | 0.002 | – | 22% | – | – | 820 µM | 49% | –

SMILES | Relative affinity [1] | Relative affinity [2] | inhibition [3] | Differential affinity [4] | Ki [6] | Ki [7] | inhibition [8] | other results
Cc1cn([C@H]2C[C@H](OCc3ccccc3)[C@@H](CO)O2)c(=O)[nH]c1=O | 0.133 | 1 | – | 7.5 | 8 µM | – | – | Ki [5]: 12 µM
CC[S+]([O-])CC1OC(n2cc(C)c(=O)[nH]c2=O)CC1O (stereo unspecified) | – | – | 7% | – | – | – | – | inhibition [9]: 4%
CC(=O)NCC1OC(n2cc(C)c(=O)[nH]c2=O)CC1O (stereo unspecified) | – | – | 19% | – | – | – | 20% | –
CO[C@H]1C[C@H](n2ccc(N)nc2=O)O[C@@H]1CO | – | – | 24% | – | – | – | – | inhibition [9]: 3%
CSc1cn([C@H]2C[C@H](O)[C@@H](CO)O2)c(=O)[nH]c1=O | 0.032 | 0.032 | – | 1 | 250 µM | 50 µM | – | –
CCO[C@H]1C[C@H](n2cc(C)c(=O)[nH]c2=O)O[C@@H]1CO | – | 0.14 | – | 3.2 | – | – | – | Relative affinity [11]: 0.044; Ki [5]: 36 µM
Cc1cn([C@H]2C[C@H](O)[C@@H](CO)O2)c(=O)n(C)c1=O | – | – | – | < 0.022 | – | – | – | –
CCOC1N([C@H]2C[C@H](O)[C@@H](CO)O2)C(=O)NC(=O)C1(C)Br (stereo in doubt; 4b) [listing 2 of 2 here] | 0.8 | 0.73 | – | 0.91 | – | – | – | –
Nc1cn([C@H]2C[C@H](O)[C@@H](CO)O2)c(=O)[nH]c1=O | 0.0043 | 0.11 | – | 26 | 72 µM | 370 µM | – | –
Cc1cn(C2CC(O)C(CSCCC(=O)O)O2)c(=O)[nH]c1=O (stereo unspecified) | – | – | 25% | – | – | – | 40% | –
CC(=O)NC1CC(n2cc(C)c(=O)[nH]c2=O)OC1CO (stereo unspecified) | – | – | – | < 4.8 | – | – | – | –
Nc1ccn([C@@H]2O[C@H](CO)[C@@H](O)[C@H]2O)c(=O)n1 | – | – | 13% | – | – | – | 1% | –
CCOC1N([C@H]2C[C@H](O)[C@@H](CO)O2)C(=O)NC(=O)C1(C)Br (stereo in doubt; 4c) [listing 2 of 2 here] | 0.41 | 0.73 | – | 1.8 | – | – | – | –
Cc1cn([C@H]2C[C@H](N)[C@@H](CO)O2)c(=O)[nH]c1=O [3-AMINO- 3-DEOXYTHYMIDINE] | 0.0042 | 0.0031 | – | 0.74 | 2600 µM | 380 µM | – | –
CC(=O)Nc1cn([C@H]2C[C@H](O)[C@@H](CO)O2)c(=O)[nH]c1=O | – | – | 11% | – | – | – | 0% | –
CC1CN([C@H]2C[C@H](O)[C@@H](CO)O2)C(=O)NC1=O (stereo partly specified) | – | 0.1 | 83% | – | 77 µM | – | – | inhibition [9]: 53%
CCCCNCC1OC(n2cc(C)c(=O)[nH]c2=O)CC1O (stereo unspecified) | – | – | 53% | – | – | – | 95% | –
O=c1ccn([C@H]2C[C@H](O)[C@@H](CO)O2)c(=O)[nH]1 | – | – | 74% | – | – | – | 90% | –
CCCCCCNCC1OC(n2cc(C)c(=O)[nH]c2=O)CC1O (stereo unspecified) | 0.046 | 0.0083 | – | 0.18 | 960 µM | 35 µM | – | –
CCCCCn1c(=O)c(C)cn([C@H]2C[C@H](O)[C@@H](CO)O2)c1=O | 0.044 | 0.0073 | – | 0.17 | 1100 µM | 36 µM | – | –
